# Laboratory results taken from patent US7507803B2, “Optimized multi-epitope constructs and uses thereof” (priority 2002, dated 2009).
# Read-outs that look alike come from different tables or passages of the source. Ends that are not written are not given here.
# B1: HBV HTL: epigene construct encoding 16 HBV HTL epitopes with GPGPG spacers, SEQ ID NO: 73/74 (nucleic acid)
# DNA: ATGGGAACTTCTTTTGTGTATGTCCCTTCCGCTCTGAACCCAGCAGACGGACCCGGGCCTGGCCTGTGCCAGGTCTTCGCCGACGCAACTCCCACAGGGTGGGGGCTGGGGCCAGGACCAGGCAGGCACTACCTGCATACTCTGTGGAAGGCAGGAATCCTCTATAAAGGGCCCGGCCCAGGCCCTCACCACACCGCCCTGAGGCAGGCCATCCTGTGCTGGGGGGAGCTCATGACCCTGGCCGGACCTGGACCCGGGGAGAGCAGACTGGTGGTGGATTTCAGCCAATTCAGCAGAGGAAACGGACCCGGCCCTGGGCCTTTTCTGCTGGCTCAGTTTACATCTGCTATTTGTTCTGTGGTCGGCCCCGGGCCCGGACTCGTGCCTTTCGTGCAGTGGTTCGTGGGACTGTCCCCTACAGTCGGGCCCGGCCCAGGGCTGCATCTGTACTCCCACCCAATCATCCTCGGCTTCCGCAAGATTGGACCCGGCCCAGGCTCCAGCAATCTCTCCTGGCTCTCTCTGGACGTGTCTGCCGCCTTTGGCCCTGGACCAGGCCTGCAAAGCCTGACTAATCTGCTCAGCAGCAACCTGTCCTGGCTGGGACCTGGCCCAGGGGCTGGCTTCTTTCTGCTCACCCGGATTCTCACAATTCCCCAGTCCGGACCAGGACCAGGAGTCAGTTTCGGGGTGTGGATCAGGACCCCTCCTGCTTATAGACCACCCAATGCTCCAATCGGCCCCGGCCCTGGCGTCGGGCCACTGACCGTGAATGAGAAGCGCCGGCTGAAGCTGATCGGCCCTGGCCCTGGCAAGCAGTGCTTTCGCAAACTGCCCGTGAACAGACCTATTGATTGGGGCCCCGGCCCTGGAGCAGCCAACTGGATTCTCAGGGGAACAAGCTTCGTCTACGTGCCCGGGCCCGGACCAGGGAAGCAGGCTTTTACCTTCTCTCCCACTTACAAGGCCTTCCTCTGTGGGCCAGGCCCCGGCGCCAAGTTTGTGGCAGCATGGACCCTCAAAGCCGCTGCCTGA
# modifications: Hepatitis B virus
# Tests used:
# HLA supertype alleles = format: binding, human
# H2^bxd mice [1] = assay: CTL response after peptide/IFA immunization, in situ ELISA; format: in vivo, mouse; conditions: peptide/IFA immunization of H2^bxd mice
# HLA-A*2402 = HLA-A*2402 (Homo sapiens, UniProt P04439, D101N/D140Y/D185E/E176V/E190D/F33S/G103R/G107R/I119L/I121M/I306V/K335N/L105A/L180Q/L300P/N151K/N90K/Q86E/Q94H/R106L/R138H/R89G/T104I/T345S/V100E/W191G/Y123F); assay: HLA class I peptide binding assay (purified HLA, IC50)
# [2] = system: HLA-A*0201/K^b transgenic mice; assay: CTL response after DNA immunization, 51Cr release assay (lytic units); format: in vivo, mouse
# Source text: However, the magnitude and the frequency of the responses varied greatly between epitopes.
# This assay to measure CTL activity is well known in the art. […] The LU calculation allows quantifying responses and thus readily comparing different experimental values.
# H2^bxd mice [3] = assay: HTL responses, primary IFN-γ ELISPOT on CD4 T cells; format: in vivo, mouse
# Procedure: H2^bxd mice were immunized intramuscularly with 100 μg of a vaccine HBV HTL epigene construct or the individual peptides emulsified in CFA. Eleven days after the immunization CD4 T cells were purified from splenocytes and HTL responses were measured using a primary IFN-γ ELISPOT assay.
# Eleven days after immunization, no booster immunizations were administered, CD4 T cells were purified from the spleen, and peptide specific HTL responses were measured in a primary γ-IFN ELISPOT assay.
# The immunogenicity of the HTL epitopes was also characterized using H2^bxd mice.
# This construct was tested for immunogenicity in H2^bxd mice (FIG. 28B), measuring IFN-γ production by CD4+ T-lymphocytes using an ELISPOT assay.
# [4] = A1 or A24 supertype, three related alleles
# [5] = A2, A3 or B7 supertype, five most common members
molecule,measurement,setting,value
CC(C)C[C@H](NC(=O)[C@H](C)NC(=O)[C@H](CO)NC(=O)[C@H](C)NC(=O)[C@@H](NC(=O)[C@H](CC(=O)O)NC(=O)[C@H](CC(C)C)NC(=O)[C@H](CC(C)C)NC(=O)[C@@H](N)CC(=O)O)[C@@H](C)O)C(=O)N[C@@H](Cc1ccc(O)cc1)C(=O)O [core 419],XRN (number of supertype alleles bound ≦500 nM),HLA supertype alleles; [4],3
CC[C@H](C)[C@H](NC(=O)[C@@H](NC(=O)[C@H](Cc1ccccc1)NC(=O)[C@H](CCCNC(=N)N)NC(=O)[C@H](CCCNC(=N)N)NC(=O)[C@H](CC(C)C)NC(=O)[C@H](CS)NC(=O)[C@H](CCSC)NC(=O)[C@H](Cc1c[nH]c2ccccc12)NC(=O)[C@@H](N)CCCNC(=N)N)[C@@H](C)CC)C(=O)O [env 236],XRN (number of supertype alleles bound ≦500 nM),HLA supertype alleles; [4],3
same,Murine Immunogenicity (SU),H2^bxd mice [1],339.6 SU
CSCC[C@H](NC(=O)[C@H](CCSC)NC(=O)[C@@H](N)Cc1c[nH]c2ccccc12)C(=O)N[C@@H](Cc1c[nH]c2ccccc12)C(=O)N[C@@H](Cc1ccc(O)cc1)C(=O)N[C@@H](Cc1c[nH]c2ccccc12)C(=O)NCC(=O)N1CCC[C@H]1C(=O)N[C@@H](CO)C(=O)N[C@@H](CC(C)C)C(=O)N[C@@H](Cc1ccc(O)cc1)C(=O)O [env 359],XRN (number of supertype alleles bound ≦500 nM),HLA supertype alleles; [4],3
CC[C@H](C)[C@H](NC(=O)[C@@H]1CCCN1C(=O)[C@H](CC(C)C)NC(=O)[C@@H](N)CC(C)C)C(=O)N[C@@H](Cc1ccccc1)C(=O)N[C@@H](Cc1ccccc1)C(=O)N[C@@H](CS)C(=O)N[C@@H](CC(C)C)C(=O)N[C@@H](Cc1c[nH]c2ccccc12)C(=O)N[C@H](C(=O)O)C(C)C [env 378],XRN (number of supertype alleles bound ≦500 nM),HLA supertype alleles; [5],1
C[C@H](N)C(=O)N[C@@H](CO)C(=O)N[C@@H](Cc1ccccc1)C(=O)N[C@@H](CS)C(=O)NCC(=O)N[C@@H](CO)C(=O)N1CCC[C@H]1C(=O)N[C@@H](Cc1ccc(O)cc1)C(=O)O [pol 166],XRN (number of supertype alleles bound ≦500 nM),HLA supertype alleles; [4],3
N[C@@H](CO)C(=O)N[C@@H](Cc1ccccc1)C(=O)N[C@@H](CS)C(=O)NCC(=O)N[C@@H](CO)C(=O)N1CCC[C@H]1C(=O)N[C@@H](Cc1ccc(O)cc1)C(=O)N[C@@H](CO)C(=O)N[C@@H](Cc1c[nH]c2ccccc12)C(=O)O [pol 167],IC50,HLA-A*2402,146 nM
same,XRN (number of supertype alleles bound ≦500 nM),HLA supertype alleles; [4],3
CC(C)[C@H](NC(=O)CNC(=O)CNC(=O)[C@@H](NC(=O)[C@@H](NC(=O)[C@H](CCCNC(=N)N)NC(=O)[C@H](C)NC(=O)[C@@H]1CCCN1C(=O)[C@@H](N)[C@@H](C)O)C(C)C)[C@@H](C)O)C(=O)N[C@@H](Cc1ccccc1)C(=O)O [pol 354],XRN (number of supertype alleles bound ≦500 nM),HLA supertype alleles; [5],2
CC(C)C[C@H](NC(=O)[C@H](CC(N)=O)NC(=O)[C@@H]1CCCN1C(=O)[C@@H](NC(=O)[C@H](C)NC(=O)[C@H](Cc1ccccc1)NC(=O)[C@H](CCCCN)NC(=O)[C@@H]1CCCN1C(=O)[C@H](Cc1c[nH]c2ccccc12)NC(=O)[C@@H](N)CO)C(C)C)C(=O)O [pol 392],XRN (number of supertype alleles bound ≦500 nM),HLA supertype alleles; [4],2
same,Murine Immunogenicity (SU),H2^bxd mice [1],261.0 SU
CC(C)C[C@H](NC(=O)[C@H](CO)NC(=O)[C@@H](N)CC(C)C)C(=O)N[C@@H](CC(=O)O)C(=O)N[C@H](C(=O)N[C@@H](CO)C(=O)N[C@@H](C)C(=O)N[C@@H](C)C(=O)N[C@@H](Cc1ccccc1)C(=O)N[C@@H](Cc1ccc(O)cc1)C(=O)O)C(C)C [pol 415],XRN (number of supertype alleles bound ≦500 nM),HLA supertype alleles; [4],3
CC(C)C[C@H](NC(=O)[C@H](CCCNC(=N)N)NC(=O)[C@H](C)NC(=O)[C@@H](NC(=O)[C@H](Cc1ccc(O)cc1)NC(=O)[C@H](CCCNC(=N)N)NC(=O)[C@H](CO)NC(=O)[C@H](CC(C)C)NC(=O)CN)C(C)C)C(=O)O [pol 455],XRN (number of supertype alleles bound ≦500 nM),HLA supertype alleles; [5],3
CC(C)C[C@H](NC(=O)[C@H](CS)NC(=O)[C@H](Cc1c[nH]cn1)NC(=O)[C@@H]1CCCN1C(=O)[C@H](Cc1ccccc1)NC(=O)[C@H](C)N)C(=O)N[C@@H](C)C(=O)N[C@@H](Cc1ccccc1)C(=O)O [pol 529],XRN (number of supertype alleles bound ≦500 nM),HLA supertype alleles; [4],3
CC[C@H](C)[C@H](NC(=O)CNC(=O)[C@H](CC(C)C)NC(=O)[C@H](CO)NC(=O)[C@H](CC(C)C)NC(=O)[C@H](CC(C)C)NC(=O)[C@@H](N)Cc1ccccc1)C(=O)N[C@@H](Cc1c[nH]cn1)C(=O)N[C@@H](CC(C)C)C(=O)O [pol 562],XRN (number of supertype alleles bound ≦500 nM),HLA supertype alleles; [5],3
CSCC[C@H](NC(=O)[C@H](CC(C)C)NC(=O)[C@H](C)NC(=O)[C@@H]1CCCN1C(=O)[C@H](Cc1ccc(O)cc1)NC(=O)CN)C(=O)N1CCC[C@H]1C(=O)N[C@@H](CC(C)C)C(=O)N[C@@H](Cc1ccc(O)cc1)C(=O)O [pol 639],IC50,HLA-A*2402,280 nM
same,XRN (number of supertype alleles bound ≦500 nM),HLA supertype alleles; [4],2
CC[C@H](C)[C@H](NC(=O)[C@H](CS)NC(=O)[C@H](C)NC(=O)[C@H](Cc1ccc(O)cc1)NC(=O)[C@H](CC(C)C)NC(=O)[C@@H]1CCCN1C(=O)[C@H](CCSC)NC(=O)[C@H](CC(C)C)NC(=O)[C@H](C)N)C(=O)O [pol 642],XRN (number of supertype alleles bound ≦500 nM),HLA supertype alleles,4
CC(C)C[C@H](NC(=O)[C@H](C)NC(=O)[C@H](CO)NC(=O)[C@@H]1CCCN1C(=O)[C@@H](NC(=O)[C@H](Cc1ccc(O)cc1)NC(=O)[C@@H](NC(=O)[C@H](Cc1ccccc1)NC(=O)[C@H](CO)NC(=O)[C@@H](NC(=O)CN)[C@@H](C)O)C(C)C)C(C)C)C(=O)N[C@@H](CC(N)=O)C(=O)N1CCC[C@H]1C(=O)N[C@@H](C)C(=O)N[C@@H](CC(=O)O)C(=O)O [pol 774],HIV-FT Immunogenicity magnitude,"[2]; 100 μg HIV-FT plasmid DNA i.m., CTL response to the epitope",0 LU
same,Frequency (fraction of independent cultures yielding positive responses),[2]; CTL response to the epitope after immunization with epigene construct HIV 1 (20 mer),0/8
same,HIV-FT Immunogenicity frequency (number cultures >2LU/total tested),[2]; HIV-FT DNA,0/8
same,HIV-FT Immunogenicity frequency of positive cultures,"[2]; HIV-FT DNA, positive = >2LU",0%
same,Frequency (fraction of independent cultures yielding positive responses),[2]; epigene construct HIV 1.1 (10 mer),0/4
LWFHISCLTF [core 101],IC50,HLA-A*2402,6.7 nM
same,XRN (number of supertype alleles bound ≦500 nM),HLA supertype alleles; [4],3
same,Murine Immunogenicity (SU),H2^bxd mice [1],0.0 SU
RFSWLSLLVPF [env 332],IC50,HLA-A*2402,12 nM
same,XRN (number of supertype alleles bound ≦500 nM),HLA supertype alleles; [4],2
same,Murine Immunogenicity (SU),H2^bxd mice [1],0.0 SU
B1,Epitopes with responses as vigorous as those induced by peptides emulsified in CFA (%),"H2^bxd mice [3]; 100 μg i.m., IFN-γ production by CD4+ T-lymphocytes",50%
same,Epitopes that failed to induce a response,"H2^bxd mice [3]; mouse, in vivo",two
same,Epitopes with responses as vigorous as those induced by peptides emulsified in CFA (fraction of epitopes tested),"H2^bxd mice [3]; mouse, in vivo",6/12
